The results in this text go back to PubChem BioAssay AID463199 (Broad Institute, 2010).

This assay concerns S. cerevisiae Burl-1 ts mutant growth, BacTiter-Glo, 38.5C 24 h. Briefly: growth induction of Burl-1 ts yeast mutant, dose response, counter-screen for SUMOylation pathway inhibitor project, whole organism, S. cerevisiae, luminescence (AID 463199). For orientation: A counterscreen serves to expose hits that act by an unwanted route or on another target.

SMILES strings stand for the structures. Calls of active or inactive are those of the source.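 Rule for the calls: active = AC50, the dose giving half-maximal effect, exceeds a fixed cutoff for a compound that rescues yeast growth under heat; inactive = the rest, inconclusive results apart.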

A word on the AC50: it is the concentration giving half of the maximal activity seen.

Turning to `CCCCOc1ccc(C(=O)Nc2ccc(N3CCN(C)CC3)cc2)cc1`, the AC50 was > 42 µM (inactive).
Turning to `Cc1ccc(CNC(=O)CCn2cc(-c3ccc(C)cc3)nc2CCN)cc1`, the AC50 is > 42 µM (inactive).
With `O=C(/C=C/N1CCOCC1)c1coc2ccccc12`, the AC50 was > 42 µM (inactive).
Under `COc1ccc(/C=N/NC(=O)c2nnn(-c3nonc3N)c2-c2cccs2)cc1OC` stands > 42 µM (inactive); under `CC1=CC(C)(C)N2C(=O)C3(NCCc4c3[nH]c3ccccc43)c3cc(C)cc1c32` (centres undefined), > 42 µM (inactive); under `CCOC1(OCC)C(c2ccc(Cl)cc2)C(C#N)(C#N)C1(OCC)OCC` (centres undefined), > 42 µM (inactive).
With `CC(C(=O)Nc1ccccc1-c1ccccc1)N1CCN(Cc2ccccc2)CC1` (centres undefined), the AC50 was > 42 µM (inactive).
Take `O=C(CCCCCn1c(=O)[nH]c2ccsc2c1=O)NCc1ccc(F)cc1`: the AC50 was > 42 µM (inactive).
The result for `Cc1ccsc1C(=O)NCCc1ccc(S(N)(=O)=O)cc1` reads > 42 µM (inactive).
Under `COCC(C)n1c(C)cc(C(=O)CSc2ccc(NC(C)=O)cc2)c1C` (centres undefined) stands > 42 µM (inactive).
For `O=C(Nc1ccccc1)N1CCN(CCc2ccccc2)CC1`, the AC50 is > 42 µM (inactive).
Take `O=C(NCc1cccc(F)c1F)C1CCC(=O)N(C2CC2)C1` (centres undefined): the AC50 was > 42 µM (inactive).
`COc1ccc(NC(=O)CN(C)C(=O)/C=C/c2cn(-c3ccccc3)nc2-c2ccc(F)cc2)cc1`: the AC50 was > 42 µM (inactive).
As for `CN(C(=O)c1ccc(-c2nn(C)c(=O)c3ccccc23)cc1)C1CCCCC1`, the AC50 is > 42 µM (inactive).
The result for `CCc1c(C(=O)N2CCN(c3ccccc3F)CC2)[nH]c(C)c1C(C)=O` reads > 42 µM (inactive); that for `CC(C)Oc1ccc(C2(C#N)CC[N+](C)(C)CC2)cc1`, > 42 µM (inactive).
For `CS(=O)(=O)N(CC(=O)N1CCCCCC1)Cc1ccc(Cl)cc1`, the AC50 was > 42 µM (inactive).
Under `Cc1ccc(CNC(=O)CCNS(=O)(=O)c2cccs2)cc1` stands > 42 µM (inactive); under `COc1ccccc1NC(=O)c1nn(-c2cccc(C(F)(F)F)c2)ccc1=O`, 12 µM.
The result for `Cc1ccc(S(=O)(=O)Oc2ccccc2N2C(=O)C3CC=CCC3C2=O)cc1` (centres undefined) reads > 42 µM (inactive); that for `Cc1ccc(NS(=O)(=O)c2c(C)[nH]c(C)c2C(=O)N2CCCCC2)c(Cl)c1`, > 42 µM (inactive).
Consider `COc1cccc(-n2nnc3c(=O)n(CC(=O)N4CCCc5ccccc54)cnc32)c1`, for which the AC50 was > 42 µM (inactive).
Under `O=C(CCNS(=O)(=O)c1cccc2nsnc12)NCCC1=CCCCC1` stands > 42 µM (inactive).
For the molecule `Cc1c(NC(C)c2cc(Cl)ccc2O)c(=O)n(-c2ccccc2)n1C` (centres undefined), the AC50 was > 42 µM (inactive).
For `CC(NC(=O)c1cnc2n(c1=O)CCS2)c1ccccc1` (centres undefined), the AC50 is > 42 µM (inactive).
With `CCc1ccc(NC(=S)N(Cc2cccc(Br)c2)CC2CCC(C(=O)O)CC2)cc1` (centres undefined), the AC50 was > 42 µM (inactive).
`CC(=O)c1cccc(NC(=O)CNC(=O)c2sc3ccccc3c2Cl)c1`: the AC50 was > 42 µM (inactive).
The result for `CCc1ccc2[nH]c(=O)c(C(c3nnnn3Cc3ccccc3)N3CCOCC3)cc2c1` (centres undefined) reads > 42 µM (inactive); that for `CCOc1ccc(N(CC(=O)NC2CCC(C)CC2)S(=O)(=O)c2c(C)noc2C)cc1` (centres undefined), > 42 µM (inactive); that for `Cc1ccc(N2C(=O)c3cccc4c(N5CCN(C)CC5)ccc(c34)C2=O)c2cccnc12`, > 42 µM (inactive).
Under `CN(Cc1ccccc1)c1ccc(S(=O)(=O)N2CCC(C(=O)O)CC2)cc1[N+](=O)[O-]` stands > 42 µM (inactive); under `Nc1ccc(N2CCN(c3ccc(F)cc3)CC2)cc1`, > 42 µM (inactive); under `CN(C#N)c1nc(Cl)nc(Nc2cccc(Cl)c2)n1`, > 42 µM (inactive).
Regarding `Clc1ccccc1-c1ccc2ncnc(NCc3cccs3)c2c1`, the AC50 was > 42 µM (inactive).
The result for `COc1ccccc1OCCCn1cc(C#N)c2ccccc21` reads > 42 µM (inactive).
In the case of `CC(C)Sc1ccc(C(=O)Nc2ccc(F)cc2F)cn1`, the AC50 is > 42 µM (inactive).
Under `COc1ccc(C2C(C(=O)Nc3cc(OC)c(OC)c(OC)c3)c3ccccc3C(=O)N2C)cc1` (centres undefined) stands > 42 µM (inactive).
Turning to `COc1ccc(C(=O)Nc2ccccc2C(=O)NCCN2CCOCC2)cc1OC`, the AC50 was > 42 µM (inactive).
The result for `COc1ccc(-c2noc(CSc3nc(-c4ccccc4)cc(=O)[nH]3)n2)cc1OC` reads > 42 µM (inactive).
Under `CC1=C(C)CS(=O)N(S(=O)(=O)c2ccc(Cl)cc2)C1` (centres undefined) stands 12.1 µM; under `CCCOc1ccccc1C1NC(=O)NC(C)=C1C(=O)OCc1ccccc1` (centres undefined), > 42 µM (inactive); under `CC(C)N(C(=S)Nc1cccc(S(=O)(=O)N(C)C)c1)c1ccccc1`, > 42 µM (inactive).
In the case of `COC(=O)c1ccc(N2C(=O)CC(NCc3ccccc3)C2=O)cc1` (centres undefined), the AC50 was > 42 µM (inactive).
The result for `N#CC1=C(N)Oc2n[nH]c(CSc3ccccc3)c2C12C(=O)Nc1ccccc12` (centres undefined) reads > 42 µM (inactive); that for `O=C(CSc1ncccc1C(=O)O)NC1CCCCC1`, > 42 µM (inactive); that for `Cc1ccc(N(CC(=O)NC2CCCC2)C(=O)CCC(=O)Nc2ccccn2)cc1C`, > 42 µM (inactive).
Take `O=C(Cc1cccs1)Nc1cccc(-c2nnc(-c3ccco3)o2)c1`: the AC50 was > 42 µM (inactive).
As to `CCCc1nc2c(nnn2Cc2ccccc2F)c(=O)[nH]1`, the AC50 is > 42 µM (inactive).
In the case of `CCOC(=O)Cn1c(C)c(Br)c(=O)c2cccc(C)c21`, the AC50 is > 42 µM (inactive).
Under `Cc1cccc(N=Nc2ccc(N(C)C)cc2)c1` stands > 42 µM (inactive).
Under `O=Nc1c(-c2cccc([N+](=O)[O-])c2)nc2ncccn12` stands > 42 µM (inactive); under `CCC(=O)N1CCc2cc(S(=O)(=O)CCC(=O)Nc3cccc(C)n3)ccc21`, > 42 µM (inactive).
Take `O=S1(=O)CC(N2CCCCC2)C(N2CCCCC2)C1` (centres undefined): the AC50 is > 42 µM (inactive).
Under `COC(=O)c1ccc(CN2CCN(C3CCCCC3)C(CCO)C2)cc1` (centres undefined) stands > 42 µM (inactive); under `CCOC(=O)c1ccc(NC(=S)NCCCN2CCOCC2)cc1`, > 42 µM (inactive); under `CCOC(=O)c1sc2ncnc(N3CCN(c4ccc(OC)cc4)CC3)c2c1C`, > 42 µM (inactive).
Consider `Cc1ccc(C(=O)N/C(=C\c2cccs2)C(=O)NCc2ccncc2)cc1`, for which the AC50 was > 42 µM (inactive).
With `CCCCSCCCNC(=O)Nc1cccc(OC)c1`, the AC50 is > 42 µM (inactive).
Turning to `COc1ccc(-c2c(C)nn3c(C)cc(C)nc23)cc1`, the AC50 is > 42 µM (inactive).
Under `CC1CCN(CCCCOc2ccc(F)cc2)CC1` stands > 42 µM (inactive).
For the molecule `CC1(C)CC(=O)C(C=Nc2ccc(O)c(N=CC3=C(O)CC(C)(C)CC3=O)c2)=C(O)C1`, the AC50 is > 42 µM (inactive).
Regarding `CCOc1ncccc1-c1nc(-c2cccs2)no1`, the AC50 is > 42 µM (inactive).
The result for `CCCCCCCCc1nc(SCC(C)=O)n[nH]1` reads > 42 µM (inactive).
Under `COC(=O)CN1C(=O)c2cccc3cccc1c23` stands > 42 µM (inactive); under `COc1ccc(OC)c(N(CC(=O)N2CCCC2)S(=O)(=O)c2ccccc2)c1`, > 42 µM (inactive).
Under `CC(=O)N1CCc2cc(S(=O)(=O)CCC(=O)N3CCN(C(=O)c4ccco4)CC3)ccc21` stands > 42 µM (inactive).
As for `CC(=O)/C=C/n1c(=S)oc2ccccc21`, the AC50 is > 42 µM (inactive).
Turning to `Cc1cc(C)c2c(Cn3ccnc3)cc(=O)oc2c1`, the AC50 was > 42 µM (inactive).
The result for `CCN1C(=S)N[C@@H](c2cccs2)C(C(=O)OC)=C1C` reads > 42 µM (inactive); that for `Cc1nc(-c2ccc(Cl)cc2)sc1C1(C)CC(c2c(Cl)cccc2Cl)=NO1` (centres undefined), > 42 µM (inactive).
Under `COc1ccccc1N1CCN(C(=O)C(=O)N/N=C/c2ccccc2F)CC1` stands > 42 µM (inactive); under `Cc1nc2ccc(S(=O)(=O)NC(CC(C)C)C(=O)O)cc2s1` (centres undefined), > 42 µM (inactive); under `COc1ccccc1/C=C/C(=O)N1CCc2cc(OC)c(OC)cc2C1C` (centres undefined), > 42 µM (inactive).
The result for `Cc1ccc(NC(=O)/C=N/OCC(=O)NCc2ccccc2Cl)cc1` reads > 42 µM (inactive); that for `CC(C)n1c(CN(C)c2ccccc2)nc2ccccc21`, > 42 µM (inactive).
Turning to `O=c1[nH]cnc2sc3c(c12)CCC3`, the AC50 was > 42 µM (inactive).
The result for `Cc1ccc2c(c1)N(CC(=O)NCC1CCCO1)C(=O)C(C)O2` (centres undefined) reads > 42 µM (inactive).
The result for `CN1CCN(CC(=O)N2c3ccccc3C(=O)Nc3cccnc32)CC1` reads > 42 µM (inactive); that for `CC1=CC(=O)C=CC1(C)C(Cl)(Cl)Cl` (centres undefined), > 42 µM (inactive).
Consider `Cc1cc(C(=O)COc2cccc3cccnc23)c(C)n1C`, for which the AC50 is > 42 µM (inactive).
`CC/C(=N\NC(=O)c1nnn(-c2nonc2N)c1-c1cccs1)c1ccccc1`: the AC50 was > 42 µM (inactive).
`COc1ccc(CCC(=O)Nc2ccc3c(c2)OCO3)cc1`: the AC50 was > 42 µM (inactive).
For `Cc1ccc(N(C(=O)Cn2nnc3ccccc32)C(C(=O)NC2CCCCC2)c2cn(C)nc2C)cc1` (centres undefined), the AC50 is > 21 µM (inactive).
As to `COc1cc(C)ccc1OCCCOc1ccccc1Br`, the AC50 is > 42 µM (inactive).
The result for `COc1ccc(CN2CCNC(=O)C2CC(=O)NCc2cn3ccc(C)cc3n2)c(OC)c1` (centres undefined) reads > 42 µM (inactive); that for `CCc1ccc(S(=O)(=O)NCc2cccnc2)cc1`, > 42 µM (inactive).
With `CCCNC(=O)c1cc2c(C(F)(F)F)nn(C)c2s1`, the AC50 is > 42 µM (inactive).
Consider `CCOC(=O)NNC(=O)CCn1c2c(c3ccccc31)CCCC2`, for which the AC50 was > 42 µM (inactive).
Take `O=C(CCn1cnnn1)Nc1ccc(Cl)cc1Cl`: the AC50 was > 42 µM (inactive).
